Experimental data: PubChem BioAssay (NCI)
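Five compound concentrations were applied to cells in 96-well plates for 48 hours; endpoints were derived by simple linear interpolation of the resulting dose-response curve. TGI is the concentration that stops growth completely.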

Columns and labels:
Assay in all cases: growth of human tumour cells (NCI), 48 h
786-0 renal = system: 786-0 renal
A498 renal = system: A498 renal
A549 NSCLC = system: A549 NSCLC
ACHN renal = system: ACHN renal
CAKI-1 renal = system: CAKI-1 renal
CCRF-CEM leukemia = system: CCRF-CEM leukemia
COLO 205 colon = system: COLO 205 colon
DLD-1 colon = system: DLD-1 colon
DMS 114 small cell lung = system: DMS 114 small cell lung
DMS 273 small cell lung = system: DMS 273 small cell lung
EKVX NSCLC = system: EKVX NSCLC
HCC-2998 colon = system: HCC-2998 colon
HCT-116 colon = system: HCT-116 colon
HCT-15 colon = system: HCT-15 colon
HL-60(TB) leukemia = system: HL-60(TB) leukemia
HOP-18 NSCLC = system: HOP-18 NSCLC
HOP-62 NSCLC = system: HOP-62 NSCLC
HOP-92 NSCLC = system: HOP-92 NSCLC
HT29 colon = system: HT29 colon
IGROV1 ovarian = system: IGROV1 ovarian
K-562 leukemia = system: K-562 leukemia
KM12 colon = system: KM12 colon
KM20L2 colon = system: KM20L2 colon
LXFL 529 NSCLC = system: LXFL 529 NSCLC
M14 melanoma = system: M14 melanoma
M19-MEL melanoma = system: M19-MEL melanoma
MALME-3M melanoma = system: MALME-3M melanoma
MOLT-4 leukemia = system: MOLT-4 leukemia
NCI-H226 lung = system: NCI-H226 lung
NCI-H23 lung = system: NCI-H23 lung
NCI-H460 lung = system: NCI-H460 lung
NCI-H522 lung = system: NCI-H522 lung
OVCAR-3 ovarian = system: OVCAR-3 ovarian
OVCAR-4 ovarian = system: OVCAR-4 ovarian
OVCAR-5 ovarian = system: OVCAR-5 ovarian
OVCAR-8 ovarian = system: OVCAR-8 ovarian
RPMI-8226 leukemia = system: RPMI-8226 leukemia
RXF 393 renal = system: RXF 393 renal
SF-268 CNS = system: SF-268 CNS
SF-295 CNS = system: SF-295 CNS
SF-539 CNS = system: SF-539 CNS
SK-MEL-2 melanoma = system: SK-MEL-2 melanoma
SK-MEL-28 melanoma = system: SK-MEL-28 melanoma
SK-MEL-5 melanoma = system: SK-MEL-5 melanoma
SK-OV-3 ovarian = system: SK-OV-3 ovarian
SN12C renal = system: SN12C renal
SNB-19 CNS = system: SNB-19 CNS
SNB-75 CNS = system: SNB-75 CNS
SNB-78 CNS = system: SNB-78 CNS
SR leukemia = system: SR leukemia
SW-620 colon = system: SW-620 colon
U251 CNS = system: U251 CNS
UACC-257 melanoma = system: UACC-257 melanoma
UACC-62 melanoma = system: UACC-62 melanoma
UO-31 renal = system: UO-31 renal
BT-549 breast = system: BT-549 breast
DU-145 prostate = system: DU-145 prostate
HS 578T breast = system: HS 578T breast
LOX IMVI melanoma = system: LOX IMVI melanoma
MCF7 breast = system: MCF7 breast
MDA-MB-231 breast = system: MDA-MB-231 breast
MDA-MB-435 = system: MDA-MB-435
MDA-N = system: MDA-N
NCI/ADR-RES ovarian = system: NCI/ADR-RES ovarian
PC-3 prostate = system: PC-3 prostate
T-47D breast = system: T-47D breast
TK-10 renal = system: TK-10 renal

Structure (SMILES): CCCCCCCC(=O)OCC1OC(n2cc(F)c(=O)[nH]c2=O)C(N)C(O)C1O (stereo not given)
- TGI (786-0 renal): > 100 µM
- TGI (A498 renal): > 100 µM
- TGI (A549 NSCLC): > 100 µM
- TGI (ACHN renal): > 100 µM
- TGI (CAKI-1 renal): > 100 µM
- TGI (CCRF-CEM leukemia): > 100 µM
- TGI (COLO 205 colon): > 100 µM
- TGI (DLD-1 colon): > 100 µM
- TGI (DMS 114 small cell lung): > 100 µM
- TGI (DMS 273 small cell lung): > 100 µM
- TGI (EKVX NSCLC): > 100 µM
- TGI (HCC-2998 colon): > 100 µM
- TGI (HCT-116 colon): > 100 µM
- TGI (HCT-15 colon): > 100 µM
- TGI (HL-60(TB) leukemia): > 100 µM
- TGI (HOP-18 NSCLC): > 100 µM
- TGI (HOP-62 NSCLC): > 100 µM
- TGI (HOP-92 NSCLC): > 100 µM
- TGI (HT29 colon): > 100 µM
- TGI (IGROV1 ovarian): > 100 µM
- TGI (K-562 leukemia): > 100 µM
- TGI (KM12 colon): > 100 µM
- TGI (KM20L2 colon): > 100 µM
- TGI (LXFL 529 NSCLC): > 100 µM
- TGI (M14 melanoma): > 100 µM
- TGI (M19-MEL melanoma): > 100 µM
- TGI (MALME-3M melanoma): > 100 µM
- TGI (MOLT-4 leukemia): > 100 µM
- TGI (NCI-H226 lung): > 100 µM
- TGI (NCI-H23 lung): > 100 µM
- TGI (NCI-H460 lung): > 100 µM
- TGI (NCI-H522 lung): > 100 µM
- TGI (OVCAR-3 ovarian): > 100 µM
- TGI (OVCAR-4 ovarian): > 100 µM
- TGI (OVCAR-5 ovarian): > 100 µM
- TGI (OVCAR-8 ovarian): > 100 µM
- TGI (RPMI-8226 leukemia): > 100 µM
- TGI (RXF 393 renal): > 100 µM
- TGI (SF-268 CNS): > 100 µM
- TGI (SF-295 CNS): > 100 µM
- TGI (SF-539 CNS): > 100 µM
- TGI (SK-MEL-2 melanoma): > 100 µM
- TGI (SK-MEL-28 melanoma): > 100 µM
- TGI (SK-MEL-5 melanoma): > 100 µM
- TGI (SK-OV-3 ovarian): > 100 µM
- TGI (SN12C renal): > 100 µM
- TGI (SNB-19 CNS): > 100 µM
- TGI (SNB-75 CNS): > 100 µM
- TGI (SNB-78 CNS): > 100 µM
- TGI (SR leukemia): > 100 µM
- TGI (SW-620 colon): > 100 µM
- TGI (U251 CNS): > 100 µM
- TGI (UACC-257 melanoma): > 100 µM
- TGI (UACC-62 melanoma): > 100 µM
- TGI (UO-31 renal): > 100 µM

Structure (SMILES): Cc1cc(=O)oc2cc3oc(N(C)c4ccccc4)nc(=O)c3cc12
- TGI (786-0 renal): > 100 µM
- TGI (A498 renal): > 100 µM
- TGI (A549 NSCLC): > 100 µM
- TGI (ACHN renal): > 100 µM
- TGI (BT-549 breast): > 100 µM
- TGI (CAKI-1 renal): > 100 µM
- TGI (CCRF-CEM leukemia): > 100 µM
- TGI (COLO 205 colon): > 100 µM
- TGI (DU-145 prostate): > 100 µM
- TGI (EKVX NSCLC): > 100 µM
- TGI (HCC-2998 colon): > 100 µM
- TGI (HCT-116 colon): > 100 µM
- TGI (HCT-15 colon): > 100 µM
- TGI (HL-60(TB) leukemia): > 100 µM
- TGI (HOP-62 NSCLC): > 100 µM
- TGI (HOP-92 NSCLC): > 100 µM
- TGI (HS 578T breast): > 100 µM
- TGI (HT29 colon): > 100 µM
- TGI (IGROV1 ovarian): > 100 µM
- TGI (K-562 leukemia): > 100 µM
- TGI (KM12 colon): > 100 µM
- TGI (LOX IMVI melanoma): > 100 µM
- TGI (M14 melanoma): > 100 µM
- TGI (MALME-3M melanoma): > 100 µM
- TGI (MCF7 breast): > 100 µM
- TGI (MDA-MB-231 breast): > 100 µM
- TGI (MDA-MB-435): > 100 µM
- TGI (MDA-N): > 100 µM
- TGI (MOLT-4 leukemia): > 100 µM
- TGI (NCI-H226 lung): > 100 µM
- TGI (NCI-H23 lung): > 100 µM
- TGI (NCI-H460 lung): > 100 µM
- TGI (NCI-H522 lung): > 100 µM
- TGI (NCI/ADR-RES ovarian): > 100 µM
- TGI (OVCAR-3 ovarian): > 100 µM
- TGI (OVCAR-4 ovarian): > 100 µM
- TGI (OVCAR-5 ovarian): > 100 µM
- TGI (OVCAR-8 ovarian): > 100 µM
- TGI (PC-3 prostate): > 100 µM
- TGI (RPMI-8226 leukemia): > 100 µM
- TGI (RXF 393 renal): > 100 µM
- TGI (SF-268 CNS): > 100 µM
- TGI (SF-295 CNS): > 100 µM
- TGI (SF-539 CNS): > 100 µM
- TGI (SK-MEL-2 melanoma): > 100 µM
- TGI (SK-MEL-28 melanoma): > 100 µM
- TGI (SK-MEL-5 melanoma): > 100 µM
- TGI (SK-OV-3 ovarian): > 100 µM
- TGI (SN12C renal): > 100 µM
- TGI (SNB-19 CNS): > 100 µM
- TGI (SNB-75 CNS): > 100 µM
- TGI (SR leukemia): > 100 µM
- TGI (SW-620 colon): > 100 µM
- TGI (T-47D breast): > 100 µM
- TGI (TK-10 renal): > 100 µM
- TGI (U251 CNS): > 100 µM
- TGI (UACC-257 melanoma): > 100 µM
- TGI (UACC-62 melanoma): > 100 µM
- TGI (UO-31 renal): > 100 µM

Structure (SMILES): N#CC1(C#N)[C@@H]2CCC=C(Sc3ccccc3)[C@@H]21
- TGI (786-0 renal): 35.5 µM
- TGI (A498 renal): > 100 µM
- TGI (A549 NSCLC): 52.8 µM
- TGI (ACHN renal): 33.1 µM
- TGI (BT-549 breast): 44.4 µM
- TGI (CAKI-1 renal): 27.2 µM
- TGI (CCRF-CEM leukemia): 63.1 µM
- TGI (COLO 205 colon): 32 µM
- TGI (DU-145 prostate): 30.4 µM
- TGI (EKVX NSCLC): 35.4 µM
- TGI (HCC-2998 colon): 32 µM
- TGI (HCT-116 colon): 29.6 µM
- TGI (HCT-15 colon): 51.1 µM
- TGI (HL-60(TB) leukemia): 49.9 µM
- TGI (HOP-92 NSCLC): 30.7 µM
- TGI (HS 578T breast): > 100 µM
- TGI (HT29 colon): 34.8 µM
- TGI (IGROV1 ovarian): 39.8 µM
- TGI (K-562 leukemia): > 100 µM
- TGI (KM12 colon): 28.5 µM
- TGI (LOX IMVI melanoma): 36.8 µM
- TGI (M14 melanoma): 26.5 µM
- TGI (MALME-3M melanoma): 32 µM
- TGI (MCF7 breast): 23.4 µM
- TGI (MDA-MB-231 breast): 43.7 µM
- TGI (MDA-MB-435): 26.8 µM
- TGI (MDA-N): 34.1 µM
- TGI (MOLT-4 leukemia): 85.9 µM
- TGI (NCI-H226 lung): 36.3 µM
- TGI (NCI-H460 lung): 53.6 µM
- TGI (NCI-H522 lung): 24.5 µM
- TGI (NCI/ADR-RES ovarian): 40.4 µM
- TGI (OVCAR-3 ovarian): 31.1 µM
- TGI (OVCAR-4 ovarian): 29 µM
- TGI (OVCAR-5 ovarian): 32 µM
- TGI (OVCAR-8 ovarian): 31.2 µM
- TGI (PC-3 prostate): 27.5 µM
- TGI (RPMI-8226 leukemia): > 100 µM
- TGI (RXF 393 renal): 26.3 µM
- TGI (SF-268 CNS): 39 µM
- TGI (SF-295 CNS): 32.8 µM
- TGI (SF-539 CNS): 34.7 µM
- TGI (SK-MEL-2 melanoma): 28.3 µM
- TGI (SK-MEL-28 melanoma): 28.9 µM
- TGI (SK-MEL-5 melanoma): 29.4 µM
- TGI (SK-OV-3 ovarian): 39.6 µM
- TGI (SN12C renal): 32.3 µM
- TGI (SNB-19 CNS): 97.9 µM
- TGI (SNB-75 CNS): 47.2 µM
- TGI (SR leukemia): > 100 µM
- TGI (SW-620 colon): 26 µM
- TGI (T-47D breast): 52.4 µM
- TGI (TK-10 renal): 28.9 µM
- TGI (U251 CNS): 30.1 µM
- TGI (UACC-257 melanoma): 42.4 µM
- TGI (UACC-62 melanoma): 37.6 µM
